Data set [1] is described as follows: Retention time of the compound in isocratic acetonitrile/water by HPLC analysis. The note with it: buffer.
The nature of data set [2]: Apparent permeability from apical to basolateral side in human Caco2 cells at 10 uM after 2 hrs by LC-MS/MS analysis. To be noted: Caco-2. (Caco-2 cells form a polarised layer with tight junctions and transporters.)
Data set [3] is described as follows: Permeability of the compound at pH 7.4 at 10 uM after 10 hrs by LC-MS based PAMPA.
Data set [4] in a line: physchem. The note with it: PBS.
A short description of data set [5]: Kinetic solubility of the compound in PBS at pH 7.4.

The structures appear in SMILES notation. Values after ≈ are worked out from the molar mass of the structure shown. Starred links: 1 amine or outer side, 2 acyl side, 3 side chain; linkers in the order of their positions; H or OH if unused. Non-standard residues stand in square brackets, D forms with d. Residues, ends and D or L forms follow the SMILES beside them. Ile(ψThz) = CC[C@H](C)[C@H](N[*:1])c1nc(C(=O)[*:2])cs1; LeuThz(4-CO) = CC(C)C[C@H](N[*:1])c1nc(C(=O)[*:2])cs1; ValThz = CC(C)[C@H](N[*:1])c1nc(C(=O)[*:2])cs1; NMeF = CN[C@@H](Cc1ccccc1)C(=O)O; NMeI = CC[C@H](C)[C@H](NC)C(=O)O; Tle = CC(C)(C)[C@H](N)C(=O)O; NMeA = CN[C@@H](C)C(=O)O

Molecule `CC[C@H](C)[C@@H]1NC(=O)[C@@H]2CCCN2C(=O)[C@H](Cc2ccccc2)NC(=O)[C@H](C)NC(=O)c2csc(n2)[C@H]([C@@H](C)CC)NC(=O)[C@@H]2CCCN2C1=O` (cyclo(AFPIP[Ile(ψThz)])) yielded a Retention_time in data set [1] of 2.77 min. In data set [2], the Papp A→B – broadly, how fast a substance crosses the layer from the apical side – at 2 h, 10 µM is 1.3 ×10⁻⁶ cm/s. In addition, the Papp (commonly a coefficient for how fast a substance crosses the barrier) at 10 h, 10 µM in data set [3] was found to be 5.3 ×10⁻⁶ cm/s. For the same molecule, the solubility (thermodynamic) (commonly solubility found after equilibrating the solid with the medium) at 48 h in data set [4] was found to be 107 µM (≈ 77.2 µg/mL). For the same molecule, the solubility (kinetic) (in general, the concentration staying in solution when a stock, usually in DMSO, is diluted into the medium) in data set [5] is 147 µM (≈ 106 µg/mL).
In turn, `CC[C@H](C)[C@@H]1NC(=O)[C@@H]2CCCN2C(=O)[C@H]([C@@H](C)CC)N(C)C(=O)[C@@H]2CCCN2C(=O)[C@H](Cc2ccccc2)NC(=O)[C@H](C)NC(=O)c2csc1n2` (cyclo(AFP[NMeI]P[Ile(ψThz)])) had a Retention_time in data set [1] of 1.79 min. For the same molecule, the Papp A→B at 2 h, 10 µM in data set [2] stood at 0.4 ×10⁻⁶ cm/s. Further, the Papp at 10 h, 10 µM in data set [3] came to 1.3 ×10⁻⁶ cm/s.
Take `CC[C@H](C)[C@@H]1NC(=O)[C@@H]2CCCN2C(=O)[C@H](Cc2ccccc2)N(C)C(=O)[C@H](CC(C)C)NC(=O)c2csc(n2)[C@H]([C@@H](C)CC)NC(=O)[C@@H]2CCCN2C1=O` (cyclo(IP[Ile(ψThz)]L[NMeF]P)): in data set [1], the Retention_time was 5.06 min. Further, in data set [2], the Papp A→B at 2 h, 10 µM was determined as 19.3 ×10⁻⁶ cm/s. In addition, the Papp at 10 h, 10 µM in data set [3] was 17.2 ×10⁻⁶ cm/s. Also, the thermodynamic solubility at 48 h in data set [4] was 111 µM (≈ 86.4 µg/mL). This molecule also showed a kinetic solubility in data set [5] of 133 µM (≈ 103 µg/mL).
The corresponding values for `CC[C@H](C)[C@@H]1NC(=O)[C@@H]2CCCN2C(=O)[C@H](Cc2ccccc2)NC(=O)[C@H](C)NC(=O)c2csc(n2)[C@H](CC(C)C)NC(=O)[C@@H]2CCCN2C1=O` (cyclo(AFPIP[LeuThz(4-CO)])) are 2.87 min, 1.3 ×10⁻⁶ cm/s, 5.6 ×10⁻⁶ cm/s, 35 µM (≈ 25.3 µg/mL) and 182 µM (≈ 131 µg/mL).
In the same order, the values of `CC(C)[C@@H]1NC(=O)c2csc(n2)[C@H](C(C)C)NC(=O)[C@@H]2CCCN2C(=O)[C@H](C(C)C)NC(=O)[C@@H]2CCCN2C(=O)[C@H](Cc2ccccc2)NC1=O` (cyclo(FPVP[ValThz]V)) are 2.81 min, 2.2 ×10⁻⁶ cm/s, 4.7 ×10⁻⁶ cm/s, 148 µM (≈ 107 µg/mL) and 105 µM (≈ 75.8 µg/mL).
In turn, `CC[C@H](C)[C@@H]1NC(=O)[C@@H]2CCCN2C(=O)[C@H]([C@@H](C)O)NC(=O)[C@@H]2CCCN2C(=O)[C@H](Cc2ccccc2)NC(=O)[C@H](C)NC(=O)c2csc1n2` (cyclo(AFPTP[Ile(ψThz)])) gave a Retention_time in data set [1] of 1.02 min. The Papp A→B at 2 h, 10 µM in data set [2] was 0.4 ×10⁻⁶ cm/s. The molecule also displayed a Papp at 10 h, 10 µM in data set [3] of 0.2 ×10⁻⁶ cm/s. Besides, the solubility (kinetic) in data set [5] worked out at 285 µM (≈ 202 µg/mL).
The molecule `CC[C@H](C)[C@@H]1NC(=O)[C@@H]2CCCN2C(=O)[C@H](C(C)C)NC(=O)[C@@H]2CCCN2C(=O)[C@H](Cc2ccccc2)NC(=O)[C@H](C)NC(=O)c2csc1n2` (cyclo(AFPVP[Ile(ψThz)])) returned a Retention_time in data set [1] of 1.97 min. The Papp A→B at 2 h, 10 µM in data set [2] amounted to 0.3 ×10⁻⁶ cm/s. Further, in data set [3], the Papp at 10 h, 10 µM was found to be 4.9 ×10⁻⁶ cm/s. The same molecule gave a thermodynamic solubility at 48 h in data set [4] of 236 µM (≈ 167 µg/mL). Besides, in data set [5], the kinetic solubility stood at 182 µM (≈ 129 µg/mL).
In the same order, the values of `CC[C@H](C)[C@@H]1NC(=O)c2csc(n2)[C@H]([C@@H](C)CC)NC(=O)[C@@H]2CCCN2C(=O)[C@H]([C@@H](C)CC)NC(=O)[C@@H]2CCCN2C(=O)[C@H](Cc2ccccc2)NC1=O` (cyclo(FPIP[Ile(ψThz)]I)) are 7.86 min, 9.6 ×10⁻⁶ cm/s, 6.1 ×10⁻⁶ cm/s, 6 µM (≈ 4.58 µg/mL) and 39 µM (≈ 29.8 µg/mL).
`CC[C@H](C)[C@@H]1NC(=O)[C@@H]2CCCN2C(=O)[C@H](Cc2ccccc2)NC(=O)[C@H](C)N(C)C(=O)c2csc(n2)[C@H]([C@@H](C)CC)NC(=O)[C@@H]2CCCN2C1=O` (cyclo(FPIP[Ile(ψThz)][NMeA])) came in with a Retention_time in data set [1] of 1.48 min. For the same molecule, the Papp A→B at 2 h, 10 µM in data set [2] was 0.2 ×10⁻⁶ cm/s. In addition, in data set [3], the Papp at 10 h, 10 µM is 0.5 ×10⁻⁶ cm/s. Also, in data set [4], the thermodynamic solubility at 48 h amounted to 801 µM (≈ 589 µg/mL). The kinetic solubility in data set [5] amounted to 333 µM (≈ 245 µg/mL).
Molecule `CC[C@H](C)[C@@H]1NC(=O)[C@@H]2CCCN2C(=O)[C@H](Cc2ccccc2)NC(=O)[C@H](CC(C)C)NC(=O)c2csc(n2)[C@H]([C@@H](C)CC)NC(=O)[C@@H]2CCCN2C1=O` (cyclo(FPIP[Ile(ψThz)]L)) came in with a Retention_time in data set [1] of 9.13 min. For the same molecule, the Papp A→B at 2 h, 10 µM in data set [2] is 10.9 ×10⁻⁶ cm/s. This molecule had a Papp at 10 h, 10 µM in data set [3] of 4.7 ×10⁻⁶ cm/s. The molecule further yielded a solubility (thermodynamic) at 48 h in data set [4] of 10 µM (≈ 7.64 µg/mL). The kinetic solubility in data set [5] worked out at 39 µM (≈ 29.8 µg/mL).
`CC[C@H](C)[C@@H]1NC(=O)[C@@H]2CCCN2C(=O)[C@H](C(C)C)NC(=O)[C@@H]2CCCN2C(=O)[C@H](Cc2ccccc2)N(C)C(=O)[C@H](C)NC(=O)c2csc1n2` (cyclo(A[NMeF]PVP[Ile(ψThz)])) displayed a Retention_time in data set [1] of 2.24 min. Besides, the Papp A→B at 2 h, 10 µM in data set [2] came to 6.8 ×10⁻⁶ cm/s. The molecule also showed a Papp at 10 h, 10 µM in data set [3] of 9.1 ×10⁻⁶ cm/s. For the same molecule, the thermodynamic solubility at 48 h in data set [4] worked out at 296 µM (≈ 214 µg/mL). The kinetic solubility in data set [5] came out at 133 µM (≈ 96 µg/mL).
Take `CC[C@H](C)[C@@H]1NC(=O)[C@@H]2CCCN2C(=O)[C@H](Cc2ccccc2)NC(=O)[C@H](C)NC(=O)c2csc(n2)[C@H](C(C)C)NC(=O)[C@@H]2CCCN2C1=O` (cyclo(AFPIP[ValThz])): in data set [1], the Retention_time is listed as 2.03 min. The Papp A→B at 2 h, 10 µM in data set [2] is 3.7 ×10⁻⁶ cm/s. Moreover, in data set [3], the Papp at 10 h, 10 µM is 4.8 ×10⁻⁶ cm/s. Moreover, in data set [4], the solubility (thermodynamic) at 48 h stood at 205 µM (≈ 145 µg/mL). In addition, in data set [5], the kinetic solubility came out at 285 µM (≈ 202 µg/mL).
`CC[C@H](C)[C@@H]1NC(=O)[C@@H]2CCCN2C(=O)[C@H](Cc2ccccc2)N(C)C(=O)[C@H](C(C)(C)C)NC(=O)c2csc(n2)[C@H]([C@@H](C)CC)NC(=O)[C@@H]2CCCN2C1=O` (cyclo(IP[Ile(ψThz)][Tle][NMeF]P)) had a Retention_time in data set [1] of 10.94 min.
Take `CC[C@H](C)[C@@H]1NC(=O)c2csc(n2)[C@H]([C@@H](C)CC)NC(=O)[C@@H]2CCCN2C(=O)[C@H]([C@@H](C)CC)NC(=O)[C@@H]2CCCN2C(=O)[C@H](Cc2ccccc2)N(C)C1=O` (cyclo(I[NMeF]PIP[Ile(ψThz)])): the Retention_time in data set [1] is reported as 10 min. In addition, in data set [2], the Papp A→B at 2 h, 10 µM was found to be 21.2 ×10⁻⁶ cm/s. Moreover, in data set [3], the Papp at 10 h, 10 µM turned out to be 1.5 ×10⁻⁶ cm/s. This molecule also returned a thermodynamic solubility at 48 h in data set [4] of 12 µM (≈ 9.34 µg/mL). This molecule also returned a kinetic solubility in data set [5] of 21 µM (≈ 16.3 µg/mL).
Regarding `CC[C@H](C)[C@@H]1NC(=O)[C@@H]2CCCN2C(=O)[C@H](Cc2ccccc2)NC(=O)[C@H](C(C)(C)C)NC(=O)c2csc(n2)[C@H]([C@@H](C)CC)NC(=O)[C@@H]2CCCN2C1=O` (cyclo(FPIP[Ile(ψThz)][Tle])), the Retention_time in data set [1] is on record as 8.72 min.
In data set [1], `CC[C@H](C)[C@@H]1NC(=O)[C@@H]2CCCN2C(=O)[C@H](Cc2ccccc2)N(C)C(=O)[C@H](C)NC(=O)c2csc(n2)[C@H]([C@@H](C)CC)NC(=O)[C@@H]2CCCN2C1=O` (cyclo(A[NMeF]PIP[Ile(ψThz)])) yielded a Retention_time of 3.03 min. In addition, the Papp A→B at 2 h, 10 µM in data set [2] was 7.4 ×10⁻⁶ cm/s. Besides, in data set [3], the Papp at 10 h, 10 µM worked out at 11 ×10⁻⁶ cm/s. Moreover, in data set [4], the solubility (thermodynamic) at 48 h is 172 µM (≈ 127 µg/mL). In addition, the solubility (kinetic) in data set [5] was 105 µM (≈ 77.3 µg/mL).
With `CC[C@H](C)[C@@H]1NC(=O)[C@@H]2CCCN2C(=O)[C@H](CC(C)C)NC(=O)[C@@H]2CCCN2C(=O)[C@H](Cc2ccccc2)NC(=O)[C@H](C)NC(=O)c2csc1n2` (cyclo(AFPLP[Ile(ψThz)])), the Retention_time in data set [1] came to 2.19 min. Moreover, the Papp A→B at 2 h, 10 µM in data set [2] was determined as 0.2 ×10⁻⁶ cm/s. Moreover, in data set [3], the Papp at 10 h, 10 µM came to 5.3 ×10⁻⁶ cm/s. In data set [4], this molecule gave a solubility (thermodynamic) at 48 h of 122 µM (≈ 88.1 µg/mL). Besides, in data set [5], the kinetic solubility was 133 µM (≈ 96 µg/mL).

The record behind these values is ChEMBL document CHEMBL3616364, “Going Out on a Limb: Delineating The Effects of β-Branching, N-Methylation, and Side Chain Size on the Passive Permeability, Solubility, and Flexibility of Sanguinamide A Analogues” (J Med Chem, 2015).
